In patent US10947389B2, “Composition, film, near infrared cut filter, laminate, pattern forming method, solid image pickup element, image display device, infrared sensor, and color filter” (FUJIFILM Corporation, priority 2016, dated 2021):

How the values were obtained:
[1] = Evaluation of solubility in water at 23° C.; format: physicochemical; conditions: stirred for 1 hour
Experimental: Each of the compounds was added to water at 23° C. under the atmospheric pressure, the components were stirred for 1 hour, and the solubility of the compound in water was obtained. The solubility of the compound was evaluated based on the following criteria.
A: the solubility in water at 23° C. was 0.1 mass % or lower
B: the solubility in water at 23° C. was higher than 0.1 mass % and 1 mass % or lower
C: the solubility in water at 23° C. was higher than 1 mass %

[2] = Evaluation of absorption maximum and absorbance ratio (500 nm/λmax) in solution; format: physicochemical; conditions: for λmax (nm) of Second Near Infrared Absorbing Compound: as listed in Table 58; for Absorbance Ratio (500 nm/λmax) / Absorption Maximum (nm): solvent chloroform
Text: In this specification, “having an absorption maximum in a wavelength range of 650 to 1000 nm” denotes having a maximum absorbance in a wavelength range of 650 to 1000 nm in an absorption spectrum of the near infrared absorbing compound in a solution. Examples of a measurement solvent used for the measurement of the absorption spectra of the near infrared absorbing compound in the solution include chloroform, methanol, dimethyl sulfoxide, ethyl acetate, and tetrahydrofuran. In the case of a compound which is soluble in chloroform, chloroform is used as the measurement solvent. In the case of a compound which is not soluble in chloroform, methanol is used. In addition, In the case of a compound which is not soluble in chloroform and methanol, dimethyl sulfoxide is used.
Each of the compounds was dissolved in a measurement solvent shown in the following tables (concentration: 2.5×10^−6 mol/L) to measure an absorption spectrum (optical path length: 10 mm).
In addition, an absorbance ratio (500 nm/λmax) as a value obtained by dividing an absorbance at a wavelength of 500 nm by an absorbance at an absorption maximum was evaluated based on the following criteria.
A: the absorbance ratio (500 nm/λmax) was 0.04 or lower
B: the absorbance ratio (500 nm/λmax) was higher 0.04 and 0.08 or lower
C: the absorbance ratio (500 nm/λmax) was higher than 0.08

λmax (nm) of Second Near Infrared Absorbing Compound [2] [nm] | Absorption Maximum (nm) [2] [nm] | Compound | Solubility [1] | Absorbance Ratio (500 nm/λmax) [2]
685 | 685 | Cc1ccc2oc(C(C#N)=c3c4c(-c5cccc(OCC(CCCCCCCC(C)C)CCCCCC(C)C)c5)n(B5Oc6cc7ccccc7cc6O5)c(=C(C#N)c5nc6cc(C)ccc6o5)c4c(-c4cccc(OCC(CCCCCCCC(C)C)CCCCCC(C)C)c4)n3B3Oc4cc5ccccc5cc4O3)nc2c1 (stereo not drawn) [II-274] | A (the solubility in water at 23 °C was 0.1 mass % or lower) | A (the absorbance ratio (500 nm/λmax) was 0.04 or lower)
685 | 685 | Cc1ccc2oc(/C(C#N)=c3/c4c(-c5cccc(OCC(CCC(C)CC(C)(C)C)C(C)CC(C)(C)C)c5)n(B5Oc6cc7ccccc7cc6O5)/c(=C(/C#N)c5nc6cc(C)ccc6o5)c4c(-c4cccc(OCC(CCC(C)CC(C)(C)C)C(C)CC(C)(C)C)c4)n3B3Oc4cc5ccccc5cc4O3)nc2c1 (stereo not drawn) [II-275] | A (the solubility in water at 23 °C was 0.1 mass % or lower) | A (the absorbance ratio (500 nm/λmax) was 0.04 or lower)
– | 738 | CC(C)CCCCCCCC(CCCCCC(C)C)COc1ccc(-c2c3c(=C(C#N)c4nc5cc(Cl)ccc5o4)n(B(c4ccccc4)c4ccccc4)c(-c4ccc(OCC(CCCCCCCC(C)C)CCCCCC(C)C)cc4)c3c(=C(C#N)c3nc4cc(Cl)ccc4o3)n2B(c2ccccc2)c2ccccc2)cc1 (stereo not drawn) [II-325] | A (the solubility in water at 23 °C was 0.1 mass % or lower) | A (the absorbance ratio (500 nm/λmax) was 0.04 or lower)
– | 780 | CC(CCC(COc1ccc(-c2c3c(=C(C#N)c4nc5ccccc5s4)n(B(c4ccccc4)c4ccccc4)c(-c4ccc(OCC(CCC(C)CC(C)(C)C)C(C)CC(C)(C)C)cc4)c3c(=C(C#N)c3nc4ccccc4s3)n2B(c2ccccc2)c2ccccc2)cc1)C(C)CC(C)(C)C)CC(C)(C)C (stereo not drawn) [II-508] | A (the solubility in water at 23 °C was 0.1 mass % or lower) | A (the absorbance ratio (500 nm/λmax) was 0.04 or lower)
– | 794 | COc1ccc2sc(C(C#N)=c3c4c(-c5ccc(OCC(CCCCCCCC(C)C)CCCCCC(C)C)cc5)n(B(c5ccccc5)c5ccccc5)c(=C(C#N)c5nc6cc(OC)ccc6s5)c4c(-c4ccc(OCC(CCCCCCCC(C)C)CCCCCC(C)C)cc4)n3B(c3ccccc3)c3ccccc3)nc2c1 (stereo not drawn) [II-673] | A (the solubility in water at 23 °C was 0.1 mass % or lower) | A (the absorbance ratio (500 nm/λmax) was 0.04 or lower)
– | 743 | CC(C)CCCCCCCC(CCCCCC(C)C)COc1ccc(-c2c3c(=C(C#N)c4nc5ccccc5n4C)n(B(c4ccccc4)c4ccccc4)c(-c4ccc(OCC(CCCCCCCC(C)C)CCCCCC(C)C)cc4)c3c(=C(C#N)c3nc4ccccc4n3C)n2B(c2ccccc2)c2ccccc2)cc1 (stereo not drawn) [II-697] | A (the solubility in water at 23 °C was 0.1 mass % or lower) | A (the absorbance ratio (500 nm/λmax) was 0.04 or lower)

Second part, the molecule before the results:

Compound | λmax (nm) of Second Near Infrared Absorbing Compound [2] [nm] | Absorption Maximum (nm) [2] [nm] | Solubility [1] | Absorbance Ratio (500 nm/λmax) [2]
Cc1ccc2c(c1)OB(n1c(-c3cccc(OCC(CCC(C)CC(C)(C)C)C(C)CC(C)(C)C)c3)c3/c(=C(\C#N)c4nc5cc(C)ccc5o4)n(B4Oc5ccc(C)cc5O4)c(-c4cccc(OCC(CCC(C)CC(C)(C)C)C(C)CC(C)(C)C)c4)c3/c1=C(\C#N)c1nc3cc(C)ccc3o1)O2 (stereo not drawn) [II-269] | 685 | 685 | A (the solubility in water at 23 °C was 0.1 mass % or lower) | A (the absorbance ratio (500 nm/λmax) was 0.04 or lower)
CC(CCC(COc1cccc(-c2c3/c(=C(\C#N)c4nc5cc(Cl)ccc5o4)n(B4Oc5ccccc5O4)c(-c4cccc(OCC(CCC(C)CC(C)(C)C)C(C)CC(C)(C)C)c4)c3/c(=C(\C#N)c3nc4cc(Cl)ccc4o3)n2B2Oc3ccccc3O2)c1)C(C)CC(C)(C)C)CC(C)(C)C (stereo not drawn) [II-408] | 680 | 680 | A (the solubility in water at 23 °C was 0.1 mass % or lower) | A (the absorbance ratio (500 nm/λmax) was 0.04 or lower)
CC(C)CCCCCCCC(CCCCCC(C)C)COc1ccc(-c2c3c(=C(C#N)c4nc5ccccc5s4)n(B(c4ccccc4)c4ccccc4)c(-c4ccc(OCC(CCCCCCCC(C)C)CCCCCC(C)C)cc4)c3c(=C(C#N)c3nc4ccccc4s3)n2B(c2ccccc2)c2ccccc2)cc1 (stereo not drawn) [II-507] | – | 780 | A (the solubility in water at 23 °C was 0.1 mass % or lower) | A (the absorbance ratio (500 nm/λmax) was 0.04 or lower)
N#CC(c1nc2ccccc2s1)=c1c2c(-c3ccc(O)cc3)n(B(c3ccccc3)c3ccccc3)c(=C(C#N)c3nc4ccccc4s3)c2c(-c2ccc(O)cc2)n1B(c1ccccc1)c1ccccc1 [II-524] | – | 779 | A (the solubility in water at 23 °C was 0.1 mass % or lower) | A (the absorbance ratio (500 nm/λmax) was 0.04 or lower)
CC(C)CCCCCCCC(CCCCCC(C)C)COc1cccc(-c2c3c(=C(C#N)c4nc5ccccc5s4)n(B(c4ccccc4)c4ccccc4)c(-c4cccc(OCC(CCCCCCCC(C)C)CCCCCC(C)C)c4)c3c(=C(C#N)c3nc4ccccc4s3)n2B(c2ccccc2)c2ccccc2)c1 (stereo not drawn) [II-525] | – | 783 | A (the solubility in water at 23 °C was 0.1 mass % or lower) | A (the absorbance ratio (500 nm/λmax) was 0.04 or lower)
Cc1ccccc1B(c1ccccc1C)n1c(-c2ccc(OCC(CCCCCCCC(C)C)CCCCCC(C)C)cc2)c2c(=C(C#N)c3nc4ccccc4s3)n(B(c3ccccc3C)c3ccccc3C)c(-c3ccc(OCC(CCCCCCCC(C)C)CCCCCC(C)C)cc3)c2c1=C(C#N)c1nc2ccccc2s1 (stereo not drawn) [II-541] | – | 772 | A (the solubility in water at 23 °C was 0.1 mass % or lower) | A (the absorbance ratio (500 nm/λmax) was 0.04 or lower)
CC(C)CCCCCCCC(CCCCCC(C)C)COc1cccc(-c2c3c(=C(C#N)c4nc5ccccc5s4)n(B4Oc5ccccc5O4)c(-c4cccc(OCC(CCCCCCCC(C)C)CCCCCC(C)C)c4)c3c(=C(C#N)c3nc4ccccc4s3)n2B2Oc3ccccc3O2)c1 (stereo not drawn) [II-589] | 719 | 719 | A (the solubility in water at 23 °C was 0.1 mass % or lower) | A (the absorbance ratio (500 nm/λmax) was 0.04 or lower)
CC(CCC(COc1cccc(-c2c3/c(=C(\C#N)c4nc5ccccc5s4)n(B4Oc5ccccc5O4)c(-c4cccc(OCC(CCC(C)CC(C)(C)C)C(C)CC(C)(C)C)c4)c3/c(=C(\C#N)c3nc4ccccc4s3)n2B2Oc3ccccc3O2)c1)C(C)CC(C)(C)C)CC(C)(C)C (stereo not drawn) [II-590] | 719 | 719 | A (the solubility in water at 23 °C was 0.1 mass % or lower) | A (the absorbance ratio (500 nm/λmax) was 0.04 or lower)
